Laboratory results taken from patent US20220056043A1, “NITROGEN-CONTAINING FUSED CYCLIC COMPOUND, PREPARATION METHOD THEREFOR AND USE THEREOF” (SICHUAN KELUN-BIOTECH BIOPHARMACEUTICAL CO., LTD., priority 2019, published 2022).
pEC50: −log10 of the molar value. Where a name gives a salt, the structure may show the parent alone.

What was measured:
THP1-defNLRP3 cells = assay: Agonistic effect on the expression of IL-1β in NLRP3 deficient THP1 cells (THP1-defNLRP3) after PMA-induced differentiation (HTRF); assay type: cell-based, human; details: Homo sapiens, THP-1; IL-1β level, PMA-differentiated NLRP3 deficient THP1 cells, 6 hours; highest test concentration 30 μM; read-out: hNLRP3 EC50 (μM) (THP-1defNLRP3)
Text: Experimental Example 2: Agonistic Effect of the Compound of the Invention on the Expression of IL-1β in NLRP3 Deficient THP1 Cells (THP1-defNLRP3 Cells) after PMA-Induced Differentiation
In this test, a HTRF detection method was used to test the effect of the compound of the invention on the level of IL-1β in THP1-defNLRP3 cells to evaluate the specificity of the agonistic effect of the compound on hNLRP3 inflammasome or hNLRP3 inflammasome pathway.
Reagents: as described in Experimental Example 1
Cell: THP1-defNLRP3 (InvivoGen)
Kit: IL-1β assay kit (CISBIO)
1) THP1-defNLRP3 cells in a logarithmic growth phase were seeded in a T75 culture flask at a density of 5×10^5 cells/well, and cultured in a cell incubator at 37° C., 5% CO2 for 24 hours, and then 1 μM PMA was used to induce THP1-defNLRP3 suspension cells to become adherent macrophages. The medium was RPMI 1640 containing 10% heat-inactivated FBS and 0.05 mM β-mercaptoethanol.
2) The cells were induced and cultured for 24 hours. Then the adherent cells were trypsinized and centrifuged at 1000 rpm for 5 min. The supernatant was removed, and the cells were resuspended to a density of 2×10^6 cells/mL in RPMI 1640 medium containing 2% heat-inactivated FBS. 50 μL/well of the cell resuspension was taken and spread on a 96-well plate such that the number of cells in each well was 1×10^5.
3) An appropriate amount of 10 mM DMSO solution of the compound to be tested was taken and diluted to a concentration of 2× test concentration with RPMI 1640 medium containing 2% heat-inactivated FBS. 50 μL/well of the dilution was added to the cells in the 96-well plate, and mixed well. The plate was incubated in a cell incubator at 37° C., 5% CO2 for 6 hours. The supernatant was collected, and the level of IL-1β was measured in accordance with the instructions of the IL-1β detection kit.
4) EC50 was fitted by the GraphPad software log(agonist) vs. response—Variable slope four-parameter method.

hTLR7 = molecular target: T1, hTLR7 (Homo sapiens, UniProt Q9NYK1); assay: Agonistic effect on hTLR7, HEK-hTLR7-NF-κB-Luciferase reporter cells; assay type: cell-based; details: 16 hours
T1 construct: host or cells: HEK-hTLR7-NF-κB-Luciferase cells
T1 sequence (Q9NYK1 27-1049): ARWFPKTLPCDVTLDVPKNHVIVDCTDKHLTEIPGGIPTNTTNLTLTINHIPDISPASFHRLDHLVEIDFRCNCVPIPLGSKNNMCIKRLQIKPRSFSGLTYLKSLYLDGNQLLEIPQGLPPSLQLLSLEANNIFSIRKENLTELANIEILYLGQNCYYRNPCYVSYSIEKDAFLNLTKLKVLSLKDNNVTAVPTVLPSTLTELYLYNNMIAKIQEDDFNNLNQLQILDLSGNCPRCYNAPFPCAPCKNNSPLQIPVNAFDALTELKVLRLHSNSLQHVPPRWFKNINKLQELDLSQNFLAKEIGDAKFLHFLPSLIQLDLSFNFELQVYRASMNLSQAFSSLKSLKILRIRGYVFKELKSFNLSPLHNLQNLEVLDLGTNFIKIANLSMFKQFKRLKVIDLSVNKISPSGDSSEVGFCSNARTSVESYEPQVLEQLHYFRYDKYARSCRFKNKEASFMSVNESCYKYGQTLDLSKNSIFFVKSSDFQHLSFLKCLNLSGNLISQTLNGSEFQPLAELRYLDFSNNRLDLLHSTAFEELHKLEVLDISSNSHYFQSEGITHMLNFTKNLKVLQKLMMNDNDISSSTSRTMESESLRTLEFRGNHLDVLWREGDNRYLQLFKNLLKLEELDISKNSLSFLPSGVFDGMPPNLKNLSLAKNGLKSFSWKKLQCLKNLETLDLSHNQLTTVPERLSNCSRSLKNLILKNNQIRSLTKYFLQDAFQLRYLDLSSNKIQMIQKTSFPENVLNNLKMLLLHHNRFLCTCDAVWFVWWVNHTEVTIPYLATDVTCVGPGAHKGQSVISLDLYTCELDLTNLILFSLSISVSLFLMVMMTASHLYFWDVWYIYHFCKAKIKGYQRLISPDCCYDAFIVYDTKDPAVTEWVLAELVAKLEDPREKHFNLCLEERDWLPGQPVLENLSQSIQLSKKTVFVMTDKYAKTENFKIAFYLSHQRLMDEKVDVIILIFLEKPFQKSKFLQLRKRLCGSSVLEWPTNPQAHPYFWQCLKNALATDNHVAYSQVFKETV
Text: Experimental Example 3: Agonistic Effect of the Compound of the Invention on hTLR7
In this test, the luciferase in HEK-hTLR7-NF-κB-reporter cells was detected to test the activating effect of the compound of the invention on TLR7 signaling pathway, so as to evaluate the specificity of the agonistic effect of the compound on NLRP3 pathway.
Reagents: DMEM (High glucose); FBS (fetal bovine serum) (Gibco); Bright-Glo™ Luciferase detection kit (Promega)
Cells: HEK-hTLR7-NF-κB-Luciferase gene cells (human TLR7 NF-κB-luciferase reporter gene cells) (Nanjing Cobioer)
1) The HEK-hTLR7-NF-κB-Luciferase cells in a logarithmic growth phase were trypsinized and resuspended in the medium to a concentration of 2×10^6 cells/mL. 50 μL/well of the cell resuspension was added to a 96-well plate such that the number of cells in each well was […]. An appropriate amount of 10 mM DMSO solution of the compound to be tested was taken and diluted to a concentration of 2× test concentration with the medium. 50 μL/well was added to the cells in the 96-well plate, and the 96-well plate was incubated in an incubator at 37° C. and 5% CO2 for 16 hours. The medium was DMEM (High glucose) containing 10% FBS.
2) After the cell incubation, 100 μL/well of Bright-Glo™ Luciferase detection reagent was added, and the mixture was incubated at room temperature for 5 minutes. Relative luciferase activity unit (RLU) was read using a microplate reader.
3) The EC50 of effect of the tested compound to stimulate hTLR7 was fitted by the GraphPad software log(agonist) vs. response—Variable slope four-parameter method.

SMILES | EC50 (THP1-defNLRP3 cells) | pEC50 (hTLR7)
Nc1cc(N[C@H]2CC[C@H](O)C2)c2sc(-c3ccn[nH]3)cc2n1 [Compound 26, (1S,3S)-3-((5-amino-2-(1H-pyrazol-5-yl)thieno[3,2-b]pyridin-7-yl)amino)cyclopentanol] | > 30 µM | < 4.00
Nc1cc(N[C@@H]2CC[C@@H](O)C2)c2sc(-c3ccn[nH]3)cc2n1 [Compound 30s, (1R,3R)-3-((5-amino-2-(1H-pyrazol-5-yl)thieno[3,2-b]pyridin-7-yl)amino)cyclopentanol hydrochloride] | > 30 µM | < 4.00
Nc1cc(NC2CC(O)C2)c2sc(-c3ccn[nH]3)cc2n1 (centres unmarked) [Compound 40, 3-((5-amino-2-(1H-pyrazol-5-yl)thieno[3,2-b]pyridin-7-yl)amino)cyclobutanol] | > 30 µM | < 4.00
CN1CC[C@H](Nc2cc(N)nc3cc(-c4ccn[nH]4)sc23)C1 [Compound 51, (S)—N^7-(1-methylpyrrolidin-3-yl)-2-(1H-pyrazol-5-yl)thieno[3,2-b]pyridine-5,7-diamine] | > 30 µM | < 4.00
CC(=O)NCCNc1cc(N)nc2cc(-c3ccn[nH]3)sc12 [Compound 52] | > 30 µM | < 4.00
CN1CCN(CCCNc2cc(N)nc3cc(-c4ccn[nH]4)sc23)CC1 [Compound 54, N^7-(3-(4-methylpiperazin-1-yl)propyl)-2-(1H-pyrazol-5-yl)thieno[3,2-b]pyridine-5,7-diamine] | > 30 µM | < 4.00
Nc1cc(NCCN2CCOCC2)c2sc(-c3ccn[nH]3)cc2n1 [Compound 55, N^7-(2-morpholinoethyl)-2-(1H-pyrazol-5-yl)thieno[3,2-b]pyridine-5,7-diamine] | > 30 µM | < 4.00
Nc1cc(NCc2ccccn2)c2sc(-c3ccn[nH]3)cc2n1 [Compound 59, 2-(1H-pyrazol-5-yl)-N^7-(pyridin-2-ylmethyl)thieno[3,2-b]pyridine-5,7-diamine] | > 30 µM | < 4.00
Cn1ccc(CNc2cc(N)nc3cc(-c4ccn[nH]4)sc23)n1 [Compound 60, N^7-(1-methyl-1H-pyrazol-3-yl)methyl-2-(1H-pyrazol-5-yl)thieno[3,2-b]pyridine-5,7-diamine] | > 30 µM | < 4.00
CC1CN(CCNc2cc(N)nc3cc(-c4ccn[nH]4)sc23)CC(C)O1 (centres unmarked) [Compound 62] | > 30 µM | < 4.00
Nc1cc(NCCNC(=O)C2CC2)c2sc(-c3ccn[nH]3)cc2n1 [Compound 64] | > 30 µM | < 4.00
CN(CCCNc1cc(N)nc2cc(-c3ccn[nH]3)sc12)C(=O)C1CC1 [Compound 76, N-(3-((5-amino-2-(1H-pyrazol-5-yl)thieno[3,2-b]pyridin-7-yl)amino)propyl)-N-methylcyclopropane formamide] | > 30 µM | < 4.00
CCC(=O)N(C)CCNc1cc(N)nc2cc(-c3ccn[nH]3)sc12 [Compound 88, N-(2-((5-amino-2-(1H-pyrazol-5-yl)thieno[3,2-b]pyridin-7-yl)amino)ethyl)-N-methylpropionamide] | > 30 µM | < 4.00

Results, then the compound that gave them:

EC50 (THP1-defNLRP3 cells) | pEC50 (hTLR7) | SMILES
> 30 µM | < 4.00 | C[C@H](O)CNc1cc(N)nc2cc(-c3ccn[nH]3)sc12 [Compound 33]
> 30 µM | < 4.00 | CC(=O)NCCCNc1cc(N)nc2cc(-c3ccn[nH]3)sc12 [Compound 53]
> 30 µM | < 4.00 | CN1CCN(CCNc2cc(N)nc3cc(-c4ccn[nH]4)sc23)CC1 [Compound 57, N^7-(2-(4-methylpiperazin-1-yl)ethyl)-2-(1H-pyrazol-5-yl)thieno[3,2-b]pyridine-5,7-diamine]
> 30 µM | < 4.00 | Nc1cc(NCCCNC(=O)C2CC2)c2sc(-c3ccn[nH]3)cc2n1 [Compound 58]
> 30 µM | < 4.00 | Nc1cc(NC2CCOC2)c2sc(-c3ccn[nH]3)cc2n1 (centres unmarked) [Compound 61, 2-(1H-pyrazol-5-yl)-N^7-(tetrahydrofuran-3-yl)thieno[3,2-b]pyridine-5,7-diamine]
> 30 µM | < 4.00 | Cn1cnc(CNc2cc(N)nc3cc(-c4ccn[nH]4)sc23)c1 [Compound 63, N^7-(1-methyl-1H-imidazol-4-yl)methyl-2-(1H-pyrazol-5-yl)thieno[3,2-b]pyridine-5,7-diamine]
> 30 µM | < 4.00 | CC(=O)N(C)CCNc1cc(N)nc2cc(-c3ccn[nH]3)sc12 [Compound 73, N-(2-((5-amino-2-(1H-pyrazol-5-yl)thieno[3,2-b]pyridin-7-yl)amino)ethyl)-N-methylethanamide]
> 30 µM | < 4.00 | CC(=O)N(C)CCCNc1cc(N)nc2cc(-c3ccn[nH]3)sc12 [Compound 74, N-(3-((5-amino-2-(1H-pyrazol-5-yl)thieno[3,2-b]pyridin-7-yl)amino)propyl)-N-methylacetamide]
> 30 µM | < 4.00 | CN(CCNc1cc(N)nc2cc(-c3ccn[nH]3)sc12)C(=O)C1CC1 [Compound 75, N-(2-((5-amino-2-(1H-pyrazol-5-yl)thieno[3,2-b]pyridin-7-yl)amino)ethyl)-N-methylcyclopropionamide]
> 30 µM | < 4.00 | CN1CCC(Nc2cc(N)nc3cc(-c4ccn[nH]4)sc23)CC1 [Compound 89, N^7-(1-methylpiperidin-4-yl)-2-(1H-pyrazol-5-yl)thieno[3,2-b]pyridine-5,7-diamine]
> 30 µM | < 4.00 | Nc1cc(NCCCO)c2sc(-c3ccncc3)cc2n1 [Compound 90, 3-((5-amino-2-(pyridin-4-yl)thieno[3,2-b]pyridin-7-yl)amino)-1-propanol]
> 30 µM | < 4.00 | Cc1cccc(-c2cc3nc(N)cc(NCCCO)c3s2)n1 [Compound 91, 3-((5-amino-2-(6-methylpyridin-2-yl)thieno[3,2-b]pyridin-7-yl)amino)-1-propanol]
